# Assay results published in patent US20090149417A1, “Methods and compositions for the treatment of cancer using benzopyrone-type PARP inhibitors” (priority 2007, published 2009).
# Key:
# COLO357FG and MiaPaCa-2 = test: Combination with oxaliplatin, BrdU proliferation, Chou and Talalay's method; type: cell-based, human; conditions: combination of IIIg with oxaliplatin
# Description: This example provides the assessment of IIIg in combination with an anti-tumor agent, oxaliplatin, on the proliferation of two human pancreatic tumor cell lines, COLO357FG and MiaPaCa-2, in vitro. Cell proliferation is measured by BrdU incorporation as described in detail hereinabove. The experiments are performed according to Chou and Talalay's method (Chou T C, Talalay P. Quantitative analysis of dose-effect relationships: the combined effects of multiple drugs or enzyme inhibitors. Adv Enzyme Regul 1984, 22: 27-55).
# [1] = test system: human pancreatic tumor cell lines, COLO357FG, MiaPaCa-2, AsPC-1, L3.6pl, and Panc28; test: Proliferation by BrdU incorporation; type: cell-based; conditions: single agent
# Description: (§1) Proliferation of various tumor cell lines including uterine cancer Hela cells, lung carcinoma A549 cells, PARP1+/+A16 and PARP1−/− A12 fibroblasts, and several human pancreatic tumor cell lines, COLO357FG, MiaPaCa-2, AsPC-1, L3.6pl, and Panc28, is measured by BrdU incorporation. In some experiments, tumor cell proliferation is measured after 96 hours. The concentration of IIIg is titrated to show the effect of IIIg on tumor cell growth in vitro.
# (§2) BrdU assay is well known in the art. Briefly, cells are cultured in the presence of the respective test substances in an appropriate 96-well MP at 37° C. for a certain period of time (1 to 5 days, depending on the individual assay system). Subsequently, BrdU is added to the cells and the cells are reincubated (usually 2-24 h). During this labeling period, the pyrimidine analogue BrdU is incorporated in place of thymidine into the DNA of proliferating cells. After removing the culture medium the cells are fixed and the DNA is denatured in one step by adding FixDenat (the denaturation of the DNA is necessary to improve the accessibility of the incorporated BrdU for detection by the antibody). The anti-BrdU-POD antibody is added and the antibody binds to the BrdU incorporated in newly synthesized, cellular DNA. The immune complexes are detected by the subsequent substrate reaction via chemiluminescent detection (based on Cell Proliferation ELISA, BrdU Chemiluminescence Protocol from Roche).
# (§3) Experiments and analyses are performed according to Shaw G and Prowse DM, “Inhibition of androgen-independent prostate cancer cell growth is enhanced by combination therapy targeting Hedgehog and ErbB signaling” Cancer Cell Int. 2008 Mar. 18; 8:3.
# PARP1−/− A12 fibroblasts = test: Proliferation by BrdU incorporation; type: cell-based; conditions: PARP-1−/− fibroblasts; single agent
# Description: as §1, §2, §3
# PARP1+/+A16 fibroblasts = test: Proliferation by BrdU incorporation; type: cell-based; conditions: wildtype fibroblasts; single agent
# Description: as §1, §2, §3
# [2] = test system: human MX-1 breast carcinoma; test: Human MX-1 breast carcinoma xenograft model in nude mice; type: in vivo
# Description: Female athymic nude mice (nu/nu, Harlan) are 10 weeks old, and have a body weight (BW) range of 18.1-27.0 g on D1 of the study. The animals are fed ad libitu water (reverse osmosis, 1 ppm Cl) and NIH 31 Modified and Irradiated Lab Diet® consisting of 18.0% crude protein, 5.0% crude fat, and 5.0% crude fiber. The mice are housed on irradiated ALPHA-dri® bed-o-cobs® Laboratory Animal Bedding in static microisolators on a 12-hour light cycle at 21-22° C. (70-72° F.) and 40-60% humidity. PRC specifically complies with the recommendations of the Guide for Care and Use of Laboratory Animals with respect to restraint, husbandry, surgical procedures, feed and fluid regulation, and veterinary care. […]
# The human MX-1 breast carcinoma utilized in the present study is maintained in nude mice by serial engraftment. […] Tumors are monitored twice weekly and then daily as their volumes approached 80-120 mm^3. […] Tumor size, in mm3, is calculated from: […]
# Tumors are calipered twice weekly for the duration of the study. […] The time to endpoint (TTE) for each mouse is calculated according to the following equation: […]
# where TTE is expressed in days, endpoint volume is in mm3, b is the intercept, and m is the slope of the line obtained by linear regression of a log-transformed tumor growth data set. […] The calculated TTE is usually less than the day on which an animal is euthanized for tumor size. […]
# malignant cancer cells = conditions: malignant versus nonmalignant cells; Kirsten E, Kun E, Int J Mol Med 2000; cited from earlier work
compound,measurement,setting,value
"O=c1ccc2c(I)c([N+](=O)[O-])ccc2o1 [IIIg, 5-iodo-6-nitro-benzopyrone]",Synergy with oxaliplatin on proliferation,COLO357FG and MiaPaCa-2,synergizes with oxaliplatin
same,Cell growth,[1],significantly inhibits cell growth
same,Cell growth,PARP1−/− A12 fibroblasts,not PARP-1−/− fibroblasts
same,Cell growth,PARP1+/+A16 fibroblasts,selectively inhibits the growth of wildtype
same,Survival of tumor-bearing animals,"[2]; biweekly intraperitoneal injection, 100 mg/kg",prolongs survival
same,Tumor growth,[2]; once-daily or twice-weekly administration,inhibits tumor growth
same,Selective cytotoxicity,malignant cancer cells,selective cytotoxicity upon malignant cancer cells but not upon nonmalignant cells
